What was measured:
[1] = Selectivity for bovine Monoamine oxidase A as ratio of Ki(MAO-B)/Ki(MAO-A)
[2] = molecular target: Amine oxidase [flavin-containing] B (Bos taurus) (UniProt P56560)
[3] = molecular target: Amine oxidase [flavin-containing] A (Bos taurus) (UniProt P21398); test: Inhibitory concentbovineion for bovine Monoamine oxidase A

Sequence of Amine oxidase [flavin-containing] B (Bos taurus) (P56560 whole entry, looked up): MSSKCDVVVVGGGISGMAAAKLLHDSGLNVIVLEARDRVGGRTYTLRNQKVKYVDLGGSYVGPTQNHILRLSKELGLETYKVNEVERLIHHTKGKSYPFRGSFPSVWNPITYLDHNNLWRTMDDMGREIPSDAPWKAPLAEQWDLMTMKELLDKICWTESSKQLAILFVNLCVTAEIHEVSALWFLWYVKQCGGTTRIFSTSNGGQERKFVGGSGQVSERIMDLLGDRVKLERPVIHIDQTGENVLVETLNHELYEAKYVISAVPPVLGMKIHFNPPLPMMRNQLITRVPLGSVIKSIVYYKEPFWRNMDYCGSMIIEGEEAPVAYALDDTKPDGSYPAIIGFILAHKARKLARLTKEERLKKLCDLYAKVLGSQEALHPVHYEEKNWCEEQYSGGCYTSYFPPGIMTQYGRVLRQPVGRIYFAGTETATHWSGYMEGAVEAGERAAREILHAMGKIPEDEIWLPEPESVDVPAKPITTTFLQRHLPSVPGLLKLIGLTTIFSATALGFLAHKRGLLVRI

What does the source list for Cn1cccc1C(=O)C(N)c1ccccc1 (stereo not drawn)?
A-selectivity [1]: 442; Ki [2]: 42 µM; Ki [3]: 0.095 µM

Which A-selectivity [1] does the source give for Cn1cccc1C(O)C(c1ccccc1)N1CCCCC1 (single isomer, unassigned; (-)) [listing 1 of 2 here] here?
The A-selectivity was 0.31.

For Cn1cccc1C(=O)CN1CCCCC1, which Ki [2] is on record?
Its Ki is 15 µM.

And the Ki [3]?
Its Ki is 0.007 µM.

Which A-selectivity [1] does the source give for Cn1cccc1C(O)C(c1ccccc1)N1CCCCC1 (single isomer, unassigned; form 1) [listing 1 of 2 here] here?
The A-selectivity was > 19.

Which Ki [2] does the source give for Cn1cccc1C(O)C(c1ccccc1)N1CCCCC1 (racemic; form 1) [listing 1 of 2 here] here?
The Ki was 9.22 µM.

What about the Ki [3] of the same compound?
Its Ki is 31 µM.

Which Ki [2] does the source give for Cn1cccc1C(=O)C(c1ccccc1)N1CCCC1 (racemic) here?
Its Ki is 600 µM.

What about the Ki [3] of the same compound?
Its Ki is 0.0075 µM.

Which A-selectivity [1] does the source give for Cn1cccc1C(O)C(c1ccccc1)N1CCCCC1 (stereo in doubt) [listing 1 of 2 here] here?
Its A-selectivity is 77.

For Cn1cccc1C(O)C(c1ccccc1)N1CCCCC1 (racemic; form 2) [listing 1 of 2 here], which Ki [2] is on record?
Its Ki is 140 µM.

What about the Ki [3] of the same compound?
The Ki was 1 µM.

Which Ki [2] does the source give for Cn1cccc1C(=O)[C@@H](c1ccccc1)N1CCCC1 here?
Its Ki is 700 µM.

What about the Ki [3] of the same compound?
The Ki was 0.0035 µM.

For CN1CCN(C(C(=O)c2cccn2C)c2ccccc2)CC1 (stereo not drawn), which A-selectivity [1] is on record?
The A-selectivity was > 288.

What about the Ki [2] of the same compound?
Its Ki is > 100 µM.

What about the Ki [3] of the same compound?
Its Ki is 0.347 µM.

Which results are given for Cn1cccc1C(O)C(c1ccccc1)N1CCCCC1 (single isomer, unassigned; (-)) [listing 2 of 2 here]?
Ki [2]: 17.2 µM; Ki [3]: 55 µM

With Cn1cccc1C(=O)C(c1ccccc1)N1CCCCC1 (racemic) as the compound, how does the A-selectivity [1] read?
Its A-selectivity is 5210.

And the Ki [2]?
The Ki was 500 µM.

What about the Ki [3] of the same compound?
Its Ki is 0.096 µM.

With Cn1cccc1C(O)C(c1ccccc1)N1CCCCC1 (single isomer, unassigned; form 2) [listing 1 of 2 here] as the compound, how does the A-selectivity [1] read?
Its A-selectivity is 0.18.

Which results are given for Cn1cccc1C(=O)[C@H](c1ccccc1)N1CCCCC1?
A-selectivity [1]: 4100; Ki [2]: 410 µM; Ki [3]: 0.1 µM

Which A-selectivity [1] does the source give for CN(C)C(C(=O)c1cccn1C)c1ccccc1 (stereo not drawn) here?
The A-selectivity was 500.

What about the Ki [2] of the same compound?
Its Ki is 875 µM.

What about the Ki [3] of the same compound?
The Ki was 1.75 µM.

Which results are given for Cn1cccc1C(O)C(c1ccccc1)N1CCCCC1 (single isomer, unassigned; form 2) [listing 2 of 2 here]?
Ki [2]: 1.24 µM; Ki [3]: 7 µM

Which A-selectivity [1] does the source give for Cn1cccc1C(O)C(c1ccccc1)N1CCCCC1 (racemic; form 2) [listing 2 of 2 here] here?
The A-selectivity was 140.

For Cn1cccc1C(=O)C(c1ccccc1)N1CCSCC1 (stereo not drawn), which A-selectivity [1] is on record?
Its A-selectivity is > 1000.

What about the Ki [2] of the same compound?
The Ki was > 100 µM.

What about the Ki [3] of the same compound?
Its Ki is 0.1 µM.

For CCOc1ccc(NC(C(=O)c2cccn2C)c2ccccc2)cc1 (stereo not drawn), which A-selectivity [1] is on record?
The A-selectivity was > 121.

And the Ki [2]?
The Ki was > 100 µM.

And the Ki [3]?
Its Ki is 0.83 µM.

With Cn1cccc1C(=O)C(c1ccccc1)N1CCOCC1 (stereo not drawn) as the compound, how does the A-selectivity [1] read?
Its A-selectivity is > 286.

What about the Ki [2] of the same compound?
Its Ki is > 100 µM.

And the Ki [3]?
Its Ki is 0.35 µM.

What does the source list for Cn1cccc1C(=O)[C@H](c1ccccc1)N1CCCC1?
Ki [2]: 500 µM; Ki [3]: 0.0095 µM

With Cn1cccc1C(=O)[C@@H](c1ccccc1)N1CCCCC1 as the compound, how does the Ki [3] read?
The Ki was 0.01 µM.

With Cn1cccc1C(O)C(c1ccccc1)N1CCCCC1 (stereo in doubt) [listing 2 of 2 here] as the compound, how does the Ki [2] read?
The Ki was 46 µM.

What about the Ki [3] of the same compound?
The Ki was 0.6 µM.

With CC(C(=O)c1cccn1C)N1CCCCC1 (stereo not drawn) as the compound, how does the Ki [2] read?
The Ki was 36 µM.

And the Ki [3]?
Its Ki is 0.038 µM.

Which A-selectivity [1] does the source give for Cn1cccc1C(O)CN1CCCCC1 (stereo not drawn) here?
Its A-selectivity is 47.

What about the Ki [2] of the same compound?
Its Ki is 23.9 µM.

And the Ki [3]?
The Ki was 0.51 µM.

Which results are given for Cn1cccc1C(=O)[C@@H](c1ccccc1)N1CCSCC1?
A-selectivity [1]: 5260; Ki [2]: 400 µM; Ki [3]: 0.076 µM

Which A-selectivity [1] does the source give for Cn1cccc1C(O)C(c1ccccc1)N1CCCCC1 (racemic; form 1) [listing 2 of 2 here] here?
Its A-selectivity is 0.29.

For Cn1cccc1C(=O)C(c1ccccc1)N1C(=O)c2ccccc2C1=O (stereo not drawn), which A-selectivity [1] is on record?
Its A-selectivity is > 123.

What about the Ki [2] of the same compound?
Its Ki is > 100 µM.

And the Ki [3]?
The Ki was 0.81 µM.

With Cn1cccc1C(=O)[C@H](c1ccccc1)N1CCSCC1 as the compound, how does the A-selectivity [1] read?
Its A-selectivity is 1220.

And the Ki [2]?
The Ki was 100 µM.

What about the Ki [3] of the same compound?
Its Ki is 0.082 µM.

Which Ki [2] does the source give for Cn1cccc1C(O)C(c1ccccc1)N1CCCCC1 (single isomer, unassigned; form 1) [listing 2 of 2 here] here?
Its Ki is > 10 µM.

And the Ki [3]?
The Ki was 0.52 µM.

Which A-selectivity [1] does the source give for Cn1cccc1C(=O)C(c1ccccc1)N1CCN(Cc2ccccc2)CC1 (stereo not drawn) here?
The A-selectivity was 11.

And the Ki [2]?
Its Ki is 10 µM.

And the Ki [3]?
The Ki was 0.93 µM.
